Reference: US6727382B1, “Peroxyacids” (Unilever Patent Holdings, B.V., priority 1992, dated 2004)

Legend:
[1] = Bleaching of tea stained test cloths, reflectance at 460 nm (Example VII); details: 40° C., 30 minutes, 1×10^−3 mol peracid in 100 ml demineralised water, EDTA 2×10^−5 M
Experimental: (§1) Bleaching experiments were carried out in a temperature controlled glass vessel, equipped with a magnetic stirrer, thermocouple and a pH electrode, at a constant temperature of 40° C. pH was adjusted using 0.1M NaOH.
(§2) Peracid prepared according to example I was exchanged with SDS and 1×10^−3 mol added to 100 ml demineralised water and ethylene diamine tetraacteic acid (EDTA) (2×10^−5 M) in the glass vessel. Thereafter, tea stained test cloths were immersed in the solution for 30 minutes. The liquor to cloth ratio was greater than 20:1. After rinsing with tap water, the cloths were dried in a tumble drier.
(§3) Bleaching performance was determined using a Instrumental Colour Systems Micro-match to measure the reflectance, at 460 nm, of the cloths both before and after treatment. The difference (ΔR460*) in the values gives a measure of the effectiveness of the treatment.

[2] = Bleaching of tea stained test cloths with peroxyacid formed in situ with SDS or Coco-PAS (Example VIII); details: EDTA 2×10^−5 M, pH 10; for ΔR460* Coco-PAS: peracid 1×10^−3 mol with Coco-PAS 2×10^−3 mol in 100 ml demineralised water; for ΔR460* SDS: peracid 1×10^−3 mol with SDS 2×10^−3 mol in 100 ml demineralised water
Experimental: as §1, §2, §3
Example VI was repeated using materials prepared according to examples I-VI and the comparative example. Peracid (1×10^−3 mol) was added to a glass vessel containing 100 ml demineralised water, EDTA, (2×10^−5 M), and SDS or Coco-PAS (2×10^−3 mol), i.e cationic peroxyacids according to the invention were formed in-situ. The pH was adjusted to pH 10 using 0.1NaOH. The difference (ΔR460*) in the values gives a measure of the effectiveness of the bleaching performance.

Compound	ΔR460* bleaching performance ([1]; pH 7.0)	ΔR460* bleaching performance ([1]; pH 8.0)	ΔR460* bleaching performance ([1]; pH 9.0)	ΔR460* Coco-PAS [2]	ΔR460* SDS [2]	ΔR460* bleaching performance ([1]; pH 10.0)
C[N+](C)(C)CCOC(=O)Oc1ccc(S(=O)(=O)[O-])cc1 [CSPC, 2-(N,N,N-trimethylammonium)ethyl-4-sulphonyl carbonate]	20.0	22.0	20.0			
CS(=O)(=O)[O-].C[N+](C)(C)Cc1ccc(C(=O)OO)cc1 [Example I, α-Trimethylammonium-4-peroxytoluic Acid Methane Sulphonate]				26.7	24.0	
C[N+](C)(Cc1ccccc1)Cc1ccc(C(=O)OO)cc1.Cc1ccc(S(=O)(=O)[O-])cc1 [Example II, α-Benzyl-dimethylammonium-4-peroxytoluic Acid Tosylate]				18.9	21.9	
O=C(CCCCCN1C(=O)c2ccccc2C1=O)OO [PAP]	13.0	13.0	6.0			4.0
CCCCCCCCC(=O)Oc1ccc(S(=O)(=O)[O-])cc1.[Na+] [SNOBS, Sodium nonoyloxybenzene sulphonate]			7.5			5.0
α-Butyl-dimethylammonium-4-peroxytoluic Acid Tosylate [Example V]				21.8	23.7	
α-Heptyl-Dimethylammonium-4-Peroxytoluic Acid Tosylate [Example IV]					14.5	
α-Octyl-dimethylammonium-4-peroxytoluic Acid Tosylate [Comparison]				7.6	8.0	
α-Pentyl-dimethylammonium-4-peroxytoluic Acid Tosylate [Example VI]				18.6	21.9	
αHexyl-dimethylammonium-4-peroxytoluic Acid Tosylate [Example III]				16.1	23.5	
